In PubChem BioAssay AID1259407 (Chemical Carcinogenesis Research Information System (CCRIS), 2018):
The source made the active and inactive calls. How the calls were made is not given here.

Tested on: CCRIS mutagenicity, Ames/micronucleus/aberration tests
Test: CCRIS mutagenicity studies
[1] = Test System: AMES SALMONELLA TYPHIMURIUM, Strain/Indicator: TA98, Metabolic Activation: NONE, Method: STANDARD PLATE
[2] = Test System: AMES SALMONELLA TYPHIMURIUM, Strain/Indicator: TA100, Metabolic Activation: NONE, Method: STANDARD PLATE
[3] = Test System: AMES SALMONELLA TYPHIMURIUM, Strain/Indicator: TA1535, Metabolic Activation: NONE, Method: STANDARD PLATE
[4] = Test System: AMES SALMONELLA TYPHIMURIUM, Strain/Indicator: TA1537, Metabolic Activation: NONE, Method: STANDARD PLATE
[5] = Test System: AMES SALMONELLA TYPHIMURIUM, Strain/Indicator: TA98, Metabolic Activation: NONE, Method: PREINCUBATION
[6] = Test System: AMES SALMONELLA TYPHIMURIUM, Strain/Indicator: TA100, Metabolic Activation: NONE, Method: PREINCUBATION

Structure (SMILES): CC(=O)Nc1snc2ccc(Cl)cc12
- mutagenic call [1]: inactive; negative
- mutagenic call (Test System: AMES SALMONELLA TYPHIMURIUM, Strain/Indicator: TA98, Metabolic Activation: S-9, Method: STANDARD PLATE): inactive; negative
- mutagenic call [2]: inactive; negative
- mutagenic call (Test System: AMES SALMONELLA TYPHIMURIUM, Strain/Indicator: TA100, Metabolic Activation: S-9, Method: STANDARD PLATE): active; positive
- mutagenic call [3]: inactive; negative
- mutagenic call (Test System: AMES SALMONELLA TYPHIMURIUM, Strain/Indicator: TA1535, Metabolic Activation: S-9, Method: STANDARD PLATE): inactive; negative
- mutagenic call [4]: inactive; negative
- mutagenic call (Test System: AMES SALMONELLA TYPHIMURIUM, Strain/Indicator: TA1537, Metabolic Activation: S-9, Method: STANDARD PLATE): active; positive

Structure (SMILES): c1cc2c3c(cccc3c1)C1NC21 (stereo not given)
- mutagenic call [1]: active; positive
- mutagenic call [2]: active; positive
- mutagenic call [4]: active; positive

Structure (SMILES): C[C@]12CC[C@@H]3c4cc(O)c(O)cc4CC[C@H]3[C@@H]1CC[C@@H]2O
- mutagenic call (End Point: In vitro micronucleus, Test System: Human lymphocytes, Metabolic Activation: None): active; positive only at 10 ug/ml in cytochalasin block micronuclei; no dose response
- mutagenic call (Test System: Ames Salmonella typhimurium, Strain/Indicator: TA98, Metabolic Activation: None, Method: Standard plate): inactive; negative
- mutagenic call (Test System: Ames Salmonella typhimurium, Strain/Indicator: TA98, Metabolic Activation: Rat, liver, S-9, Method: Standard plate): inactive; negative
- mutagenic call (Test System: Ames Salmonella typhimurium, Strain/Indicator: TA100, Metabolic Activation: None, Method: Standard plate): inactive; negative
- mutagenic call (Test System: Ames Salmonella typhimurium, Strain/Indicator: TA100, Metabolic Activation: Rat, liver, S-9, Method: Standard plate): inactive; negative

Structure (SMILES): CC[C@H](C)[C@H](NC(=O)[C@H](Cc1ccc(O)cc1)NC(=O)CNC(=O)[C@@H](NC(=O)[C@@H](NC(=O)[C@H](CS)NC(=O)[C@H](CC(N)=O)NC(=O)[C@H](CS)NC(=O)[C@H](C)NC(=O)[C@H](Cc1ccc(O)cc1)NC(=O)[C@H](CCCCN)NC(=O)[C@H](CC(=O)O)NC(=O)[C@H](CC(C)C)NC(=O)[C@H](C)NC(=O)[C@H](CCC(=O)O)NC(=O)[C@@H](NC(=O)[C@H](Cc1ccc(O)cc1)NC(=O)[C@H](CCSC)NC(=O)[C@H](CS)NC(=O)[C@@H](NC(=O)CNC(=O)[C@H](CC(=O)O)NC(=O)[C@H](Cc1cnc[nH]1)NC(=O)[C@H](CC(C)C)NC(=O)[C@H](CS)NC(=O)[C@H](Cc1ccc(O)cc1)NC(=O)CNC(=O)[C@H](CC(=O)O)NC(=O)[C@H](Cc1cnc[nH]1)NC(=O)[C@H](CO)NC(=O)[C@H](CC(C)C)NC(=O)[C@@H]1CCCN1C(=O)[C@H](CS)NC(=O)[C@H](CCC(=O)O)NC(=O)[C@H](CO)NC(=O)[C@H](CC(=O)O)NC(=O)[C@H](CO)NC(=O)[C@@H](N)CC(N)=O)C(C)C)[C@@H](C)CC)C(C)C)C(C)C)C(=O)NCC(=O)N[C@@H](CCC(=O)O)C(=O)N[C@@H](CCCNC(=N)N)C(=O)N[C@@H](CS)C(=O)N[C@@H](CCC(N)=O)C(=O)N[C@@H](Cc1ccc(O)cc1)C(=O)N[C@@H](CCCNC(=N)N)C(=O)N[C@@H](CC(=O)O)C(=O)N[C@@H](CC(C)C)C(=O)N[C@@H](CCCCN)C(=O)N[C@@H](Cc1c[nH]c2ccccc12)C(=O)N[C@@H](Cc1c[nH]c2ccccc12)C(=O)N[C@@H](CCC(=O)O)C(=O)N[C@@H](CC(C)C)C(=O)N[C@@H](CCCNC(=N)N)C(=O)O
- mutagenic call [1]: inactive; negative
- mutagenic call (Test System: AMES SALMONELLA TYPHIMURIUM, Strain/Indicator: TA98, Metabolic Activation: RAT, LIVER, S-9, PHENOBARBITAL AND 5,6-BENZOFLAVONE, Method: STANDARD PLATE): inactive; negative
- mutagenic call [2]: inactive; negative
- mutagenic call (Test System: AMES SALMONELLA TYPHIMURIUM, Strain/Indicator: TA100, Metabolic Activation: RAT, LIVER, S-9, PHENOBARBITAL AND 5,6-BENZOFLAVONE, Method: STANDARD PLATE): inactive; negative
- mutagenic call [3]: inactive; negative
- mutagenic call (Test System: AMES SALMONELLA TYPHIMURIUM, Strain/Indicator: TA1535, Metabolic Activation: RAT, LIVER, S-9, PHENOBARBITAL AND 5,6-BENZOFLAVONE, Method: STANDARD PLATE): inactive; negative
- mutagenic call [4]: inactive; negative
- mutagenic call (Test System: AMES SALMONELLA TYPHIMURIUM, Strain/Indicator: TA1537, Metabolic Activation: RAT, LIVER, S-9, PHENOBARBITAL AND 5,6-BENZOFLAVONE, Method: STANDARD PLATE): inactive; negative
- mutagenic call (Test System: E. COLI, Strain/Indicator: WP2 UVRA, Metabolic Activation: NONE, Method: STANDARD PLATE): inactive; negative
- mutagenic call (Test System: E. COLI, Strain/Indicator: WP2 UVRA, Metabolic Activation: RAT, LIVER, S-9, PHENOBARBITAL AND 5,6-BENZOFLAVONE, Method: STANDARD PLATE): inactive; negative

Structure (SMILES): C[Si]1(C)O[Si](C)(C)O[Si](C)(C)O[Si](C)(C)O[Si](C)(C)O1
- mutagenic call [1]: inactive; negative
- mutagenic call (Test System: AMES SALMONELLA TYPHIMURIUM, Strain/Indicator: TA98, Metabolic Activation: RAT LIVER S-9, AROCLOR 1254, Method: STANDARD PLATE): inactive; negative
- mutagenic call [2]: inactive; negative
- mutagenic call (Test System: AMES SALMONELLA TYPHIMURIUM, Strain/Indicator: TA100, Metabolic Activation: RAT LIVER S-9, AROCLOR 1254, Method: STANDARD PLATE): inactive; negative
- mutagenic call [3]: inactive; negative
- mutagenic call (Test System: AMES SALMONELLA TYPHIMURIUM, Strain/Indicator: TA1535, Metabolic Activation: RAT LIVER S-9, AROCLOR 1254, Method: STANDARD PLATE): inactive; negative
- mutagenic call [4]: inactive; negative
- mutagenic call (Test System: AMES SALMONELLA TYPHIMURIUM, Strain/Indicator: TA1537, Metabolic Activation: RAT LIVER S-9, AROCLOR 1254, Method: STANDARD PLATE): inactive; negative
- mutagenic call (Test System: AMES SALMONELLA TYPHIMURIUM, Strain/Indicator: TA1538, Metabolic Activation: NONE, Method: STANDARD PLATE): inactive; negative
- mutagenic call (Test System: AMES SALMONELLA TYPHIMURIUM, Strain/Indicator: TA1538, Metabolic Activation: RAT LIVER S-9, AROCLOR 1254, Method: STANDARD PLATE): inactive; negative
- mutagenic call (Test System: E. COLI, Strain/Indicator: P3078 POLA, Metabolic Activation: NONE, Method: SPOT TEST): inactive; negative
- mutagenic call (Test System: E. COLI, Strain/Indicator: P3078 POLA, Metabolic Activation: RAT LIVER S-9, AROCLOR 1254, Method: SPOT TEST): inactive; negative
- mutagenic call (Test System: E. COLI, Strain/Indicator: W3110, Metabolic Activation: NONE, Method: SPOT TEST): inactive; negative
- mutagenic call (Test System: E. COLI, Strain/Indicator: W3110, Metabolic Activation: RAT LIVER S-9, AROCLOR 1254, Method: SPOT TEST): inactive; negative
- mutagenic call (Test System: MOUSE LYMPHOMA, Strain/Indicator: L5178Y (TK+/TK-), Metabolic Activation: NONE, Method: SUSPENSION/PLATE): inactive; negative
- mutagenic call (Test System: MOUSE LYMPHOMA, Strain/Indicator: L5178Y (TK+/TK-), Metabolic Activation: RAT, LIVER, S-9, Method: SUSPENSION/PLATE): inactive; negative

Structure (SMILES): N[C@@H](CCCCN/C=C/C=O)C(=O)O
- mutagenic call (Test System: AMES SALMONELLA TYPHIMURIUM, Strain/Indicator: HISD3052, Metabolic Activation: NONE, Method: STANDARD PLATE): active; positive

Structure (SMILES): OC1c2ccccc2Oc2ccccc21
- mutagenic call (Test System: AMES SALMONELLA TYPHIMURIUM, Strain/Indicator: TA97, Metabolic Activation: NONE, Method: PREINCUBATION): active; positive
- mutagenic call (Test System: AMES SALMONELLA TYPHIMURIUM, Strain/Indicator: TA97, Metabolic Activation: RAT, LIVER, S-9, PHENOBARBITAL AND 5,6-BENZOFLAVONE, Method: PREINCUBATION): active; positive
- mutagenic call [5]: active; positive
- mutagenic call (Test System: AMES SALMONELLA TYPHIMURIUM, Strain/Indicator: TA98, Metabolic Activation: RAT, LIVER, S-9, PHENOBARBITAL AND 5,6-BENZOFLAVONE, Method: PREINCUBATION): active; positive
- mutagenic call [6]: inactive; negative
- mutagenic call (Test System: AMES SALMONELLA TYPHIMURIUM, Strain/Indicator: TA100, Metabolic Activation: RAT, LIVER, S-9, PHENOBARBITAL AND 5,6-BENZOFLAVONE, Method: PREINCUBATION): inactive; negative
- mutagenic call (Test System: AMES SALMONELLA TYPHIMURIUM, Strain/Indicator: TA2637, Metabolic Activation: NONE, Method: PREINCUBATION): active; positive
- mutagenic call (Test System: AMES SALMONELLA TYPHIMURIUM, Strain/Indicator: TA2637, Metabolic Activation: RAT, LIVER, S-9, PHENOBARBITAL AND 5,6-BENZOFLAVONE, Method: PREINCUBATION): inactive; negative

Structure (SMILES): CC(C)Sc1cc(Cc2ccc(N)c(SC(C)C)c2)ccc1N
- mutagenic call [5]: inactive; negative
- mutagenic call (Test System: AMES SALMONELLA TYPHIMURIUM, Strain/Indicator: TA98, Metabolic Activation: RAT, LIVER, S-9, PCB, Method: PREINCUBATION): active; positive
- mutagenic call [6]: inactive; negative
- mutagenic call (Test System: AMES SALMONELLA TYPHIMURIUM, Strain/Indicator: TA100, Metabolic Activation: RAT, LIVER, S-9, PCB, Method: PREINCUBATION): active; positive
